From US20110306641A1, “NOVEL 2,6-SUBSTITUTED-3-NITROPYRIDINE DERIVATIVE, METHOD FOR PREPARING SAME, AND PHARMACEUTICAL PREPARATION INCLUDING SAME” (priority 2008, published 2011)

Tests used:
[1] = tested on: osteoclastogenesis (formation of multinucleated osteoclasts); test: Osteoclastogenesis inhibition via co-culture system (bone marrow cells + osteoblasts, TRAP staining); format: cell-based, mouse; details: 7 days co-culture, vs vehicle control; for Osteoclastogenesis inhibition (%): 1 μM; for inhibition at 1 µM: Mus musculus, Osteoclast, 168 h
Protocol: Osteoclastogenesis inhibitory effects of the compounds of the present invention were evaluated via a co-culture system (Reference: Endocrinology 137(1996), 2187 to 2190, E. Jimi et al.). A specific experimental method is as follows.
1) Preparation of Bone Marrow Cells and Osteoblasts
Femur and tibia were aseptically dissected from 6 to 8-week-old male ddY mice to harvest bone marrow cells by a conventional method using a syringe. In brief, tissues were removed from the dissected bone, the bone ends were cut off with scissors, and the bone marrow was isolated by pushing a medium-containing syringe (23G) against the one end of the cut bone. The isolated bone marrow was subjected to repeated piston movement of a syringe such that single cells were obtained (Reference: Endocrinology 123(1988), 2600 to 2602, Takahashi et al.). After removal of red blood cells within the bone marrow, the bone marrow cells recovered by centrifugation were placed in an α-MEM supplemented with 10% fetal bovine serum (FBS), followed by counting of nucleated cells and then were immediately used for a co-culture system.
For the preparation of osteoblasts (Calvarial cells), the cranial bone were aseptically dissected from 1 to 2-day-old neonatal ICR mice and subjected to continuous reaction with a 0.2% collagenase solution to separate osteoblasts. The cell-suspended supernatant was centrifuged to recover osteoblasts which were grown to full confluence in an α-MEM supplemented with 10% FBS and then diluted to a desired cell density for use in the experiment.
2) Osteoclastogenesis Inhibition Experiment Via Co-Culture System
As the medium used for a co-culture system, a differentiation medium with the addition of differentiation factors 1α,25-dihydroxyvitamin D3 (10^−8M) and dexamethasone (10^−8M) to α-MEM supplemented with 10% FBS was used for the induction of osteoclastogenesis. First, the compounds of the present invention dissolved in dimethyl sulfoxide (DMSO) at a concentration of 1 mM were diluted to 2 μM using the above-mentioned differentiation medium. As a vehicle control group, 0.2% (v/v) DMSO was added to the medium. 100 μL/well of each medium was added to 96-well plates. In addition, the above prepared bone marrow cells and osteoblasts were plated onto 96-well plates at a density of 1×10^5 cells/50 μL/well and 3×10^3 cells/50 μL/well, respectively. The total volume/well was 200 μL and the final compound concentration was 1 μM. The control group was 0.1% (v/v) DMSO. The cells were cultured with exchange of the culture media with fresh media containing differentiation factors and test materials (materials containing the compounds of the present invention) at an interval of 2 to 3 days.
7 days after culturing of cells, the formation of multinucleated osteoclasts was confirmed by microscopic examination, the medium was removed from the wells and then the cells were fixed in a 10% phosphate-buffered formalin solution. The degree of formation of mature osteoclasts was measured taking advantage of the characteristics of osteoclasts showing a positive reaction to a tartrate-resistant acid phosphatase (TRAP) staining solution. The TRAP staining solution was prepared in a manner such that naphthol AS-MS phosphate as a substrate and a coloring agent (Fast Red Violet LB salt) were dissolved in N,N-dimethylformamide, and a 0.1N NaHCO3 buffer solution containing 50 mM of tartaric acid was added thereto. Among the TRAP-positive cells under a light microscope, multinucleated osteoclasts having 6 to 7 nuclei were regarded as mature osteoclasts.
The degree of inhibition of osteoclastogenesis was calculated according to the following equation 1. The results are summarized in Table 2 below (Experiments were carried out for 4 wells/experimental group (n=4), and the results are given in terms of mean±standard deviation) […]

[2] = tested on: MC3T3-E1 cell; test: Alkaline phosphatase (ALP) activity in MC3T3-E1 cells; format: cell-based; details: 3 days; for activity at 1 µM: Mus musculus, 72 h, read-out: ALP activity (1 μM, % of Control) MC3T3-E1 cell
Protocol: (§1) Differentiation and activity of osteoblasts were indirectly evaluated by measuring an ALP activity having a close relationship with osteogenesis.
(§2) Osteoblasts (Calvarial cells) prepared in Experimental Example 1 and MC3T3-E1 cells (available from RIKEN Cell Bank, Japan) were collected in α-MEM supplemented with 10% FBS, followed by cell counting. The cells were dispensed into 24-well cultureware at a density of 2×10^4 cells/well. After culturing of the cells for 24 hours, the culture media were discarded and replaced with fresh media in which test compounds were diluted to a concentration of 1 μM (1 mL/well). In addition, the vehicle control group containing 0.1% DMSO was also treated. Under the conditions where the compounds were treated, the cells were cultured in a 5% CO2 […] at 37° for 3 days. When the experiment was terminated, the supernatant was removed and the cells were washed three times with cold phosphate buffer at 4°. 0.2% Triton X-100 was added to the washed cells which were then subjected to three cycles of freezing at −70° and thawing at room temperature for the complete lysis of cells. The cell extracts were pooled and centrifuged to collect the cell supernatant which was used for the measurement of ALP activity and proteins. The protein concentration was measured using a BCA assay kit (manufactured by Sigma-Aldrich). For the measurement of ALP activity, p-nitrophenylphosphate was added to the cell supernatant which was then incubated at 37° for 30 minutes, and the reaction was terminated with the addition of 50 μL of 0.2N sodium hydroxide. The standard curve was plotted at the absorbance of 405 nm using p-nitrophenol as a standard material and then the absorbance of test materials thus reacted was measured to determine the production amount of p-nitrophenol.
(§3) The ALP activity was calculated by dividing the amount of p-nitrophenol produced from each test material by the protein amount and the reaction time. Therefore, the unit of ALP activity was given in terms of p-nitrophenol/μg protein/min. The results are given in Table 3 where the ALP activity unit of each test material was given in terms of % change through the comparison between the individual test materials and the vehicle control group.

[3] = tested on: Calvarial cell; test: Cytotoxicity test (MTT) in osteoblasts (calvarial cells); details: 1 μM, 72 hours, vs vehicle control
Protocol: Drugs were diluted to a concentration of 2 μM in α-MEM culture media supplemented with 10% FBS. The vehicle control group was established to contain 0.2% DMSO. 100 μL/well of the diluted drugs were dispensed into 96-well plates to which osteoblasts (calvarial cells) prepared in Experimental Example 1 were then added at a density of 1.0×10^4 cells/100 μL/well. Here, the final compound concentration in the cell culture was 1 μM, and the vehicle control group contained 0.1% DMSO. The cells were cultured in a 5% CO2 inhibitorr at 37° for 72 hours. 25 μL of 3-(4,5-dimethyl-2-thiazolyl)-2,5-diphenyl-2H-tetrazolium bromide (MTT) dissolved in PBS (2 mg/mL) was added to each cell culture 4 hours before the end of culture. After completion of the reaction, the plates were centrifuged, the media were discarded, and 100 μL of formazan was added and dissolved in dimethyl sulfoxide (DMSO). Finally, the absorbance of the developed plates was measured at 540 nm. The cell viability was expressed as % concentration in comparison with the vehicle control group.

[4] = tested on: Calvarial cell; test: Alkaline phosphatase (ALP) activity in osteoblasts (Calvarial cells); format: cell-based, mouse; details: 3 days; for activity at 1 µM: Mus musculus, 72 h, read-out: ALP activity (1 μM, % of Control) Calvarial cell
Protocol: as §1, §2, §3

| Compound | Osteoclastogenesis inhibition (%) [1] | ALP activity (1 μM, % of Control) MC3T3-E1 cell [2] | Cell viability (%) Calvarial cell [3] | ALP activity (1 μM, % of Control) Calvarial cell [4] | activity at 1 µM [4] | inhibition at 1 µM [1] | activity at 1 µM [2] |
| --- | --- | --- | --- | --- | --- | --- | --- |
| CN(CC1OCCO1)c1ccc([N+](=O)[O-])c(Nc2ccc3[nH]ncc3c2)n1 [Compound 17, 2-(1H-indazol-5-yl)amino-6-[(N-[1,3]-dioxolan-2-ylmethyl)-methylamino]-3-nitropyridine] | 92% | 188 % of Control | 89% | 139 % of Control |  |  |  |
| CC(C)Nc1ccc([N+](=O)[O-])c(Nc2ccc3cn[nH]c3c2)n1 [Compound 33, 2-(1H-indazol-6-yl)amino-6-(isopropylamino)-3-nitropyridine] |  |  | 97% |  | 122% |  |  |
| COCC(C)Nc1ccc([N+](=O)[O-])c(Nc2ccc3[nH]ncc3c2)n1 (stereo not shown) [Compound 22, 2-(1H-indazol-5-yl)amino-6-[(1-methyl-2-methoxy)ethylamino]-3-nitropyridine] | 100% |  | 99% | 119 % of Control |  |  |  |
| O=[N+]([O-])c1ccc(NCCc2ccccn2)nc1Nc1ccc2cn[nH]c2c1 [Compound 14, 2-(1H-indazol-6-yl)amino-6-[(2-pyridyl)ethylamino]-3-nitropyridine] |  |  | 91% |  | 111% | 98% | 121% |
| CN(C)c1ccc([N+](=O)[O-])c(Nc2ccc3[nH]ncc3c2)n1 [Compound 25, 2-(1H-indazol-5-yl)amino-6-(N,N-dimethylamino)-3-nitropyridine] |  |  | 106% |  | 128% | 81% |  |
| O=[N+]([O-])c1ccc(NC2CC2)nc1Nc1ccc2[nH]ncc2c1 [Compound 34, 2-(1H-indazol-5-yl)amino-6-(cyclopropylamino)-3-nitropyridine] |  |  | 93% |  | 154% | 100% |  |
| O=[N+]([O-])c1ccc(NCCN2CCOCC2)nc1Nc1ccc2[nH]ncc2c1 [Compound 37, 2-(1H-indazol-5-yl)amino-6-[(2-morpholino)ethylamino]-3-nitropyridine] |  |  | 94% |  | 126% |  | 141% |
| O=[N+]([O-])c1ccc(NCc2ccncc2)nc1Nc1ccc2cn[nH]c2c1 [Compound 26, 2-(1H-indazol-6-yl)amino-6-[(4-pyridyl)methylamino]-3-nitropyridine] |  |  | 106% |  | 113% | 78% |  |
| CCN(CCO)c1ccc([N+](=O)[O-])c(Nc2ccc3[nH]ncc3c2)n1 [Compound 11, 2-(1H-indazol-5-yl)amino-6-[(N-ethyl-2-hydroxyethyl)amino]-3-nitropyridine] | 98% | 140 % of Control | 105% | 143 % of Control |  |  |  |
| 2-(1H-indazol-5-yl)amino-6-(2-methyl-4,5-dihydroimidazol-1-yl)amino-3-nitropyridine [Compound 1] |  | 168 % of Control |  | 158 % of Control |  |  |  |
| CN1CCN(Nc2ccc([N+](=O)[O-])c(Nc3ccc4cn[nH]c4c3)n2)CC1 [Compound 23, 2-(1H-indazol-6-yl)amino-6-[(4-methylpiperazin-1-yl)amino]-3-nitropyridine] |  |  | 98% |  | 139% | 92% |  |
| CN(CCO)c1ccc([N+](=O)[O-])c(Nc2ccc3[nH]ncc3c2)n1 [Compound 7, 2-(1H-indazol-5-yl)amino-6-[(N-methyl-2-hydroxyethyl)amino]-3-nitropyridine] | 72% | 155 % of Control | 103% | 221 % of Control |  |  |  |
| CN(C)CCNc1ccc([N+](=O)[O-])c(Nc2ccc3cn[nH]c3c2)n1 [Compound 20, 2-(1H-indazol-6-yl)amino-6-[2-(N,N-dimethylamino)ethylamino]-3-nitropyridine] |  |  |  |  | 119% | 90% |  |
| O=[N+]([O-])c1ccc(NC(CO)CO)nc1Nc1ccc2[nH]ncc2c1 [Compound 35, 2-(1H-indazol-5-yl)amino-6-[(2-hydroxy-1-hydroxymethyl)-ethylamino]-3-nitropyridine] |  | 123 % of Control | 104% |  |  |  |  |
| O=[N+]([O-])c1ccc(NN2CCOCC2)nc1Nc1ccc2cn[nH]c2c1 [Compound 24, 2-(1H-indazol-6-yl)amino-6-[(4-morpholin-1-yl)amino]-3-nitropyridine] | 86% |  | 110% | 107 % of Control |  |  |  |
| O=[N+]([O-])c1ccc(NCc2ccccn2)nc1Nc1ccc2cn[nH]c2c1 [Compound 21, 2-(1H-indazol-6-yl)amino-6-[(2-pyridyl)methylamino]-3-nitropyridine] |  |  | 96% |  | 115% |  |  |
| O=[N+]([O-])c1ccc(NCCCn2ccnc2)nc1Nc1ccc2cn[nH]c2c1 [Compound 49, 2-(1H-indazol-6-yl)amino-6-[(3-imidazol-1-yl)propylamino]-3-nitropyridine] |  |  | 95% |  | 129% |  |  |
| O=[N+]([O-])c1ccc(N2CCN(CCO)CC2)nc1Nc1ccc2cn[nH]c2c1 [Compound 19, 2-(1H-indazol-6-yl)amino-6-[4-(2-hydroxyethyl)piperazin-1-yl]-3-nitropyridine] |  |  | 100% |  | 132% | 90% |  |
| CN1CCN(c2ccc([N+](=O)[O-])c(Nc3ccc4[nH]ncc4c3)n2)CC1 [Compound 39, 2-(1H-indazol-5-yl)amino-6-(4-methylpiperazin-1-yl)-3-nitropyridine] |  |  | 97% |  | 159% | 80% |  |
